Emax, AUC and Activity data for one compound are collected here from ChEMBL document CHEMBL5579809, “Exploration of bromodomain ligand-linker conjugation sites for efficient CBP/p300 heterobifunctional degrader activity” (Bioorg Med Chem Lett, 2024).

Molecules are shown by their SMILES. Activity calls are given as the source filed them. The rule behind the calls is not given here.

T2 sequence (Q92793 2-2442 limits assumed): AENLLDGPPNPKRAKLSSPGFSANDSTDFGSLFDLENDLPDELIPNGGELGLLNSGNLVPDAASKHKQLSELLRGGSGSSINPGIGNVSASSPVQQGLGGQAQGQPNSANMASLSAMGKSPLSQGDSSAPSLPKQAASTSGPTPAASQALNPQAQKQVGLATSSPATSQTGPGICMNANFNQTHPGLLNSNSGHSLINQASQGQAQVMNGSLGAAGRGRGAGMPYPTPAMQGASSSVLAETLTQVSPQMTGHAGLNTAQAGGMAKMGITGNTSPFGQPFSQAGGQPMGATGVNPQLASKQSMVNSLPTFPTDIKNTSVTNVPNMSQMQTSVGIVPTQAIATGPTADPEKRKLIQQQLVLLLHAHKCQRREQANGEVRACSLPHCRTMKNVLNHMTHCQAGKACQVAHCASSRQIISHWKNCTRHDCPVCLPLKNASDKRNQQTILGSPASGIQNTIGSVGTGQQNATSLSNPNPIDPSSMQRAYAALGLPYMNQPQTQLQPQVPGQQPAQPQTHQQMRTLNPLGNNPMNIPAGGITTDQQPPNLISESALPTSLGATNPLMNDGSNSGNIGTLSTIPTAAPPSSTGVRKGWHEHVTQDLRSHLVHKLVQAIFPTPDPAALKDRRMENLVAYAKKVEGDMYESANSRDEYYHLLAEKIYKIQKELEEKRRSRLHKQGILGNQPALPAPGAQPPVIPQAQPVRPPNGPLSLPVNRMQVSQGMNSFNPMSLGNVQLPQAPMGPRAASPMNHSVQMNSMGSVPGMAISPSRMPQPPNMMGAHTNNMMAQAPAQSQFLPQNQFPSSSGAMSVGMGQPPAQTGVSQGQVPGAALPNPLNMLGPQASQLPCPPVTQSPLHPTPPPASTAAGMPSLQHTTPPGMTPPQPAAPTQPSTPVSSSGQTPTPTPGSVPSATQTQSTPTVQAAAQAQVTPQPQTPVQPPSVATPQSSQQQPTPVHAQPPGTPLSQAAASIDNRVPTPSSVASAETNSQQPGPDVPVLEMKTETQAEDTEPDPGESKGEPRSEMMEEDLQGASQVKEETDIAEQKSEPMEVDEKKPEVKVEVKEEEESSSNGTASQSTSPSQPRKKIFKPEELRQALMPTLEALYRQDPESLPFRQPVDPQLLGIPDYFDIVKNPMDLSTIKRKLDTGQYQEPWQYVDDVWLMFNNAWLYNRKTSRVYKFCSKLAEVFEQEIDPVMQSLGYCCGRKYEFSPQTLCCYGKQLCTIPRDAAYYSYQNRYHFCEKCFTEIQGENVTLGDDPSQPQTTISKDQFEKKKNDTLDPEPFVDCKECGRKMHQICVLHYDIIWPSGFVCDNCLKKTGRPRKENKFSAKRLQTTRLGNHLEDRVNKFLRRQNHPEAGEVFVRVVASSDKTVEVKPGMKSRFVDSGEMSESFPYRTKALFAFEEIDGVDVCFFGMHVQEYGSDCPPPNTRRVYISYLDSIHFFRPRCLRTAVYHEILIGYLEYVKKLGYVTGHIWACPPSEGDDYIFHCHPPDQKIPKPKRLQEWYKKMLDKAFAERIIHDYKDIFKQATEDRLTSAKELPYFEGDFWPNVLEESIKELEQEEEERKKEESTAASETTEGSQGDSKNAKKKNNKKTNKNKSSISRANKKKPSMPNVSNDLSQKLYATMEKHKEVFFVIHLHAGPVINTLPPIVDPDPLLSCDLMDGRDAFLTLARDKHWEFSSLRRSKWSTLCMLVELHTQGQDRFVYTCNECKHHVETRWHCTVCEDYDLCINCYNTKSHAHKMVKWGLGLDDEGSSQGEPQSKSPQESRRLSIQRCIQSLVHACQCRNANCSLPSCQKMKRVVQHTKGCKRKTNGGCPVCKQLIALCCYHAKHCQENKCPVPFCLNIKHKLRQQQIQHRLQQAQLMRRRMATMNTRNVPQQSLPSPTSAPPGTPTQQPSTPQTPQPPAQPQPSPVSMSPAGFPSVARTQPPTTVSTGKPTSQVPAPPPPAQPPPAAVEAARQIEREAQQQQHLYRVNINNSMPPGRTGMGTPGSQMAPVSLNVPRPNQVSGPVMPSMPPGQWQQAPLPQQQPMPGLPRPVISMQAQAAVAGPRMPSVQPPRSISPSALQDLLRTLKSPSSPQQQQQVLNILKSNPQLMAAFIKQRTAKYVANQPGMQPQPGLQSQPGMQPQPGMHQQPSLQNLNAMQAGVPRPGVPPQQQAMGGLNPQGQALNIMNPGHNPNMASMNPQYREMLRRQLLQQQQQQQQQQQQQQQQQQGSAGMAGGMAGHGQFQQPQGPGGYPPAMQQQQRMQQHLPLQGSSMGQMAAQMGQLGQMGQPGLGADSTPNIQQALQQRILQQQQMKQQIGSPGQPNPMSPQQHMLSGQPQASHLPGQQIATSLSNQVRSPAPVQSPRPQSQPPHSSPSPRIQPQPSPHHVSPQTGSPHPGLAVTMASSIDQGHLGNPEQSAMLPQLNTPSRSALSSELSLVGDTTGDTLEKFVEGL
T2 sequence (Q96SW2 whole entry partner): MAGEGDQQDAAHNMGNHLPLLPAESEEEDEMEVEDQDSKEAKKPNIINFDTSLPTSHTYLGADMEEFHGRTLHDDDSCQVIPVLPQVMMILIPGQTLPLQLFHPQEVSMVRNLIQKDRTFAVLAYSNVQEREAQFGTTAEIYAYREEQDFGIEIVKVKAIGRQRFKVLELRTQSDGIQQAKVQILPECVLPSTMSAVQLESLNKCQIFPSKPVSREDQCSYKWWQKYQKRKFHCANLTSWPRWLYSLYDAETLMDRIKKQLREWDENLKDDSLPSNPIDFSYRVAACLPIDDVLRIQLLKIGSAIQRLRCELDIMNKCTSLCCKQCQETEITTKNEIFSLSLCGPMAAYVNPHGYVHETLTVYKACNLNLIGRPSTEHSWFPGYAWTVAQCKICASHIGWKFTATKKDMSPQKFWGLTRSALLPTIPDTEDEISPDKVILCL

One experiment has as its target T1, Protein cereblon/Histone acetyltransferase p300 (Homo sapiens) (UniProt Q09472+Q96SW2). The experiment in a line: PROTAC activity at CRBN/HiBiT-tagged p300 in human HAP1 cells assessed as induction of p300 degradation by measuring maximal efficacy at 10 nM measured over 24 hrs by luminescence based analysis relative to control. Type of experiment: cell-based.
Details: not given
In the case of `CNC(=O)N1CCc2c(c(N3CCCc4cc(-c5cnn(CC(=O)NCCOCCOCCOCCOCCOCCOCCNc6ccc7c(c6)C(=O)N(C6CCC(=O)NC6=O)C7=O)c5)c(C(F)F)cc43)nn2C2CCOCC2)C1` (centres undefined), the Emax amounted to 19%.

The next experiment has as its target T2, Protein cereblon/CREB-binding protein (Homo sapiens) (UniProt Q92793+Q96SW2). Put plainly: PROTAC activity at CRBN/HiBiT-tagged CBP in human HAP1 cells assessed as total cumulative degradation by measuring AUC at 100 nM measured over 24 hrs by luminescence based analysis.
Details: not given
Type of experiment: cell-based.
`CNC(=O)N1CCc2c(c(N3CCCc4cc(-c5cnn(CC(=O)NCCOCCOCCOCCOCCOCCOCCNc6ccc7c(c6)C(=O)N(C6CCC(=O)NC6=O)C7=O)c5)c(C(F)F)cc43)nn2C2CCOCC2)C1` (centres undefined): the AUC worked out at 23.2.

A further experiment has as its target T2, Protein cereblon/CREB-binding protein (Homo sapiens). Put plainly: PROTAC activity at CRBN/HiBiT-tagged CBP in human HAP1 cells assessed as total cumulative degradation by measuring AUC at 1 nM measured over 24 hrs by luminescence based analysis. Type of experiment: cell-based.
Details: not given
As for `CNC(=O)N1CCc2c(c(N3CCCc4cc(-c5cnn(CC(=O)NCCOCCOCCOCCOCCOCCOCCNc6ccc7c(c6)C(=O)N(C6CCC(=O)NC6=O)C7=O)c5)c(C(F)F)cc43)nn2C2CCOCC2)C1` (centres undefined), the AUC was 23.6.

The next experiment has the same target. The experiment in a line: PROTAC activity at CRBN/HiBiT-tagged CBP in human HAP1 cells assessed as total cumulative degradation by measuring AUC at 0.01 nM measured over 24 hrs by luminescence based analysis.
Details: not given
Type of experiment: cell-based.
On to `CNC(=O)N1CCc2c(c(N3CCCc4cc(-c5cnn(CC(=O)NCCOCCOCCOCCOCCOCCOCCNc6ccc7c(c6)C(=O)N(C6CCC(=O)NC6=O)C7=O)c5)c(C(F)F)cc43)nn2C2CCOCC2)C1` (centres undefined), for which the AUC was 21.6.

The next experiment addresses T1, Protein cereblon/Histone acetyltransferase p300 (Homo sapiens). Put plainly: PROTAC activity at CRBN/HiBiT-tagged p300 in human HAP1 cells assessed as total cumulative degradation by measuring AUC at 0.01 nM measured over 24 hrs by luminescence based analysis. Type of experiment: cell-based.
Details: not given
On to `CNC(=O)N1CCc2c(c(N3CCCc4cc(-c5cnn(CC(=O)NCCOCCOCCOCCOCCOCCOCCNc6ccc7c(c6)C(=O)N(C6CCC(=O)NC6=O)C7=O)c5)c(C(F)F)cc43)nn2C2CCOCC2)C1` (centres undefined), for which the AUC was 27.6.

Another experiment shares this target. Put plainly: PROTAC activity at CRBN/HiBiT-tagged p300 in human HAP1 cells assessed as induction of p300 degradation by measuring degradation rate at 10 nM measured over 24 hrs by luminescence based analysis.
Details: not given
Type of experiment: cell-based.
As for `CNC(=O)N1CCc2c(c(N3CCCc4cc(-c5cnn(CC(=O)NCCOCCOCCOCCOCCOCCOCCNc6ccc7c(c6)C(=O)N(C6CCC(=O)NC6=O)C7=O)c5)c(C(F)F)cc43)nn2C2CCOCC2)C1` (centres undefined), the Activity was 0.006 h⁻¹.

In a further experiment the target is T2, Protein cereblon/CREB-binding protein (Homo sapiens). Put plainly: PROTAC activity at CRBN/HiBiT-tagged CBP in human HAP1 cells assessed as total cumulative degradation by measuring AUC at 1000 nM measured over 24 hrs by luminescence based analysis. Type of experiment: cell-based.
Details: not given
In the case of `CNC(=O)N1CCc2c(c(N3CCCc4cc(-c5cnn(CC(=O)NCCOCCOCCOCCOCCOCCOCCNc6ccc7c(c6)C(=O)N(C6CCC(=O)NC6=O)C7=O)c5)c(C(F)F)cc43)nn2C2CCOCC2)C1` (centres undefined), the AUC worked out at 25.

A further experiment deals with T1, Protein cereblon/Histone acetyltransferase p300 (Homo sapiens). Put plainly: PROTAC activity at CRBN/HiBiT-tagged p300 in human HAP1 cells assessed as total cumulative degradation by measuring AUC at 100 nM measured over 24 hrs by luminescence based analysis. Type of experiment: cell-based.
Details: not given
For `CNC(=O)N1CCc2c(c(N3CCCc4cc(-c5cnn(CC(=O)NCCOCCOCCOCCOCCOCCOCCNc6ccc7c(c6)C(=O)N(C6CCC(=O)NC6=O)C7=O)c5)c(C(F)F)cc43)nn2C2CCOCC2)C1` (centres undefined), the AUC was 22.4.

Another experiment has the same target. The experiment in a line: PROTAC activity at CRBN/HiBiT-tagged p300 in human HAP1 cells assessed as total cumulative degradation by measuring AUC at 1000 nM measured over 24 hrs by luminescence based analysis.
Details: not given
Type of experiment: cell-based.
In the case of `CNC(=O)N1CCc2c(c(N3CCCc4cc(-c5cnn(CC(=O)NCCOCCOCCOCCOCCOCCOCCNc6ccc7c(c6)C(=O)N(C6CCC(=O)NC6=O)C7=O)c5)c(C(F)F)cc43)nn2C2CCOCC2)C1` (centres undefined), the AUC was 26.1.

For the next experiment the target is unchanged. The experiment in a line: PROTAC activity at CRBN/HiBiT-tagged p300 in human HAP1 cells assessed as total cumulative degradation by measuring AUC at 0.1 nM measured over 24 hrs by luminescence based analysis.
Details: not given
Type of experiment: cell-based.
Take `CNC(=O)N1CCc2c(c(N3CCCc4cc(-c5cnn(CC(=O)NCCOCCOCCOCCOCCOCCOCCNc6ccc7c(c6)C(=O)N(C6CCC(=O)NC6=O)C7=O)c5)c(C(F)F)cc43)nn2C2CCOCC2)C1` (centres undefined): the AUC was 27.

The next experiment has as its target T2, Protein cereblon/CREB-binding protein (Homo sapiens). Put plainly: PROTAC activity at CRBN/HiBiT-tagged CBP in human HAP1 cells assessed as total cumulative degradation by measuring AUC at 0.1 nM measured over 24 hrs by luminescence based analysis. Type of experiment: cell-based.
Details: not given
Turning to `CNC(=O)N1CCc2c(c(N3CCCc4cc(-c5cnn(CC(=O)NCCOCCOCCOCCOCCOCCOCCNc6ccc7c(c6)C(=O)N(C6CCC(=O)NC6=O)C7=O)c5)c(C(F)F)cc43)nn2C2CCOCC2)C1` (centres undefined), the AUC was 22.8.

Another experiment concerns the target T1, Protein cereblon/Histone acetyltransferase p300 (Homo sapiens). The experiment in a line: PROTAC activity at CRBN/HiBiT-tagged p300 in human HAP1 cells assessed as total cumulative degradation by measuring AUC at 10 nM measured over 24 hrs by luminescence based analysis. Type of experiment: cell-based.
Details: not given
Regarding `CNC(=O)N1CCc2c(c(N3CCCc4cc(-c5cnn(CC(=O)NCCOCCOCCOCCOCCOCCOCCNc6ccc7c(c6)C(=O)N(C6CCC(=O)NC6=O)C7=O)c5)c(C(F)F)cc43)nn2C2CCOCC2)C1` (centres undefined), the AUC came out at 22.7.

In the next experiment the target is T2, Protein cereblon/CREB-binding protein (Homo sapiens). The experiment in a line: Binding affinity to recombinant CRBN/CBP bromodomain (unknown origin) assessed as ternary complex formation at 10 to 100 nM by Alphascreen-based proximity assay. Type of experiment: protein assay. Conditions: dose 10-100 nM.
Turning to `CNC(=O)N1CCc2c(c(N3CCCc4cc(-c5cnn(CC(=O)NCCOCCOCCOCCOCCOCCOCCNc6ccc7c(c6)C(=O)N(C6CCC(=O)NC6=O)C7=O)c5)c(C(F)F)cc43)nn2C2CCOCC2)C1` (centres undefined), the outcome was Active.

For a further experiment, the target named is Protein cereblon/Bromodomain-containing protein 4 (Homo sapiens) (UniProt O60885+Q96SW2). Put plainly: PROTAC activity at CRBN/HiBiT-tagged BRD4 in human HAP1 cells assessed as induction of BRD4 degradation measured over 24 hrs by luminescence based analysis.
Sequence of Protein cereblon/Bromodomain-containing protein 4 (Homo sapiens) (Q96SW2 whole entry, looked up, other chains not shown): as the sequence (Q96SW2 whole entry partner) above
Details: not given
Type of experiment: cell-based.
Regarding `CNC(=O)N1CCc2c(c(N3CCCc4cc(-c5cnn(CC(=O)NCCOCCOCCOCCOCCOCCOCCNc6ccc7c(c6)C(=O)N(C6CCC(=O)NC6=O)C7=O)c5)c(C(F)F)cc43)nn2C2CCOCC2)C1` (centres undefined), the outcome was inactive.

The next experiment concerns the target T2, Protein cereblon/CREB-binding protein (Homo sapiens). The experiment in a line: PROTAC activity at CRBN/HiBiT-tagged CBP in human HAP1 cells assessed as total cumulative degradation by measuring AUC at 10 nM measured over 24 hrs by luminescence based analysis. Type of experiment: cell-based.
Details: not given
For the compound `CNC(=O)N1CCc2c(c(N3CCCc4cc(-c5cnn(CC(=O)NCCOCCOCCOCCOCCOCCOCCNc6ccc7c(c6)C(=O)N(C6CCC(=O)NC6=O)C7=O)c5)c(C(F)F)cc43)nn2C2CCOCC2)C1` (centres undefined), the AUC came to 23.

A further experiment deals with T1, Protein cereblon/Histone acetyltransferase p300 (Homo sapiens). The experiment in a line: Binding affinity to recombinant CRBN/p300 bromodomain (unknown origin) assessed as ternary complex formation at 10 to 100 nM by Alphascreen-based proximity assay. Conditions: dose 10-100 nM. Type of experiment: protein assay.
With `CNC(=O)N1CCc2c(c(N3CCCc4cc(-c5cnn(CC(=O)NCCOCCOCCOCCOCCOCCOCCNc6ccc7c(c6)C(=O)N(C6CCC(=O)NC6=O)C7=O)c5)c(C(F)F)cc43)nn2C2CCOCC2)C1` (centres undefined), the result was Active.

For another experiment the target is unchanged. The experiment in a line: PROTAC activity at CRBN/HiBiT-tagged p300 in human HAP1 cells assessed as induction of p300 degradation by measuring maximal efficacy at 100 nM measured over 24 hrs by luminescence based analysis relative to control. Type of experiment: cell-based.
Details: not given
`CNC(=O)N1CCc2c(c(N3CCCc4cc(-c5cnn(CC(=O)NCCOCCOCCOCCOCCOCCOCCNc6ccc7c(c6)C(=O)N(C6CCC(=O)NC6=O)C7=O)c5)c(C(F)F)cc43)nn2C2CCOCC2)C1` (centres undefined): the Emax was found to be 21%.

The target is the same in another experiment. The experiment in a line: PROTAC activity at CRBN/HiBiT-tagged p300 in human HAP1 cells assessed as induction of p300 degradation by measuring degradation rate at 100 nM measured over 24 hrs by luminescence based analysis. Type of experiment: cell-based.
Details: not given
On to `CNC(=O)N1CCc2c(c(N3CCCc4cc(-c5cnn(CC(=O)NCCOCCOCCOCCOCCOCCOCCNc6ccc7c(c6)C(=O)N(C6CCC(=O)NC6=O)C7=O)c5)c(C(F)F)cc43)nn2C2CCOCC2)C1` (centres undefined), for which the Activity amounted to 0.02 h⁻¹.

For the next experiment the target is unchanged. The experiment in a line: PROTAC activity at CRBN/HiBiT-tagged p300 in human HAP1 cells assessed as total cumulative degradation by measuring AUC at 1 nM measured over 24 hrs by luminescence based analysis. Type of experiment: cell-based.
Details: not given
Take `CNC(=O)N1CCc2c(c(N3CCCc4cc(-c5cnn(CC(=O)NCCOCCOCCOCCOCCOCCOCCNc6ccc7c(c6)C(=O)N(C6CCC(=O)NC6=O)C7=O)c5)c(C(F)F)cc43)nn2C2CCOCC2)C1` (centres undefined): the AUC came out at 26.1.
